From PubChem BioAssay (NCI)
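Tested at 5 concentrations; 48 h exposure; 96-well plates; endpoints linearly interpolated, else capped at highest concentration. TGI is the concentration that stops growth completely.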

Key:
Experiment in all cases: NCI-60 cell line screen, 48 h
[1] = system: SF-268 CNS
[2] = system: UACC-62 melanoma
[3] = system: KM20L2 colon
[4] = system: SK-MEL-2 melanoma
[5] = system: HT29 colon
[6] = system: NCI-H226 lung
[7] = system: SN12C renal
[8] = system: 786-0 renal
[9] = system: OVCAR-3 ovarian
[10] = system: MALME-3M melanoma
[11] = system: DMS 273 small cell lung
[12] = system: OVCAR-4 ovarian
[13] = system: SNB-78 CNS
[14] = system: UO-31 renal
[15] = system: RPMI-8226 leukemia
[16] = system: IGROV1 ovarian
[17] = system: OVCAR-8 ovarian
[18] = system: SW-620 colon
[19] = system: NCI-H460 lung
[20] = system: SK-MEL-28 melanoma
[21] = system: OVCAR-5 ovarian
[22] = system: KM12 colon
[23] = system: CAKI-1 renal
[24] = system: HCT-116 colon
[25] = system: SF-295 CNS
[26] = system: HOP-62 NSCLC
[27] = system: TK-10 renal
[28] = system: A549 NSCLC
[29] = system: SF-539 CNS
[30] = system: K-562 leukemia
[31] = system: XF 498 CNS
[32] = system: EKVX NSCLC
[33] = system: SNB-19 CNS
[34] = system: RXF 393 renal
[35] = system: A498 renal
[36] = system: MOLT-4 leukemia
[37] = system: NCI-H522 lung
[38] = system: NCI-H23 lung
[39] = system: HL-60(TB) leukemia
[40] = system: SNB-75 CNS
[41] = system: SK-MEL-5 melanoma
[42] = system: HCC-2998 colon
[43] = system: LOX IMVI melanoma
[44] = system: UACC-257 melanoma
[45] = system: DMS 114 small cell lung
[46] = system: ACHN renal
[47] = system: M14 melanoma
[48] = system: M19-MEL melanoma
[49] = system: HOP-92 NSCLC
[50] = system: CCRF-CEM leukemia
[51] = system: DLD-1 colon
[52] = system: HCT-15 colon
[53] = system: SK-OV-3 ovarian
[54] = system: HOP-18 NSCLC
[55] = system: COLO 205 colon
[56] = system: U251 CNS
[57] = system: SR leukemia
[58] = system: LXFL 529 NSCLC

Compound C=C(CS(=O)(=O)c1ccccc1)[P+](c1ccccc1)(c1ccccc1)c1ccccc1 has a TGI [1] of 29.6 µM, a TGI [2] of 56.9 µM and a TGI [3] of 32.8 µM. For the same compound, the TGI [4] was over 100 µM, the TGI [5] was 37.3 µM and the TGI [6] was 36.7 µM. It also gave a TGI [7] of 32.4 µM, a TGI [8] of 47.3 µM and a TGI [9] of 37.9 µM. It also gave a TGI [10] of 38.3 µM, a TGI [11] of 33.4 µM and a TGI [12] of over 100 µM. It also gave a TGI [13] of over 100 µM, a TGI [14] of 94.3 µM and a TGI [15] of 11.4 µM. For the same compound, the TGI [16] was 68.4 µM, the TGI [17] was 74.1 µM and the TGI [18] was 51.1 µM. The TGI [19] was 66 µM, the TGI [20] was 25.5 µM and the TGI [21] was over 100 µM. The TGI [22] was 29 µM, the TGI [23] was 65.9 µM and the TGI [24] was 25.2 µM. It also gave a TGI [25] of 50 µM, a TGI [26] of 90 µM and a TGI [27] of 92.4 µM. The TGI [28] was over 100 µM, the TGI [29] was 78.2 µM and the TGI [30] was 31.7 µM. For the same compound, the TGI [31] was 28.9 µM, the TGI [32] was over 100 µM and the TGI [33] was over 100 µM. The TGI [34] was 38.4 µM, the TGI [35] was over 100 µM and the TGI [36] was 39.6 µM. The TGI [37] was 44.1 µM, the TGI [38] was 62.7 µM and the TGI [39] was 32.6 µM. It also gave a TGI [40] of 67.3 µM, a TGI [41] of 29.1 µM and a TGI [42] of 47.2 µM. For the same compound, the TGI [43] was 30 µM, the TGI [44] was 22.2 µM and the TGI [45] was 58.7 µM. For the same compound, the TGI [46] was 53.1 µM, the TGI [47] was 39.4 µM and the TGI [48] was 50.4 µM. The TGI [49] was 65.6 µM, the TGI [50] was 25 µM and the TGI [51] was over 100 µM. For the same compound, the TGI [52] was over 100 µM and the TGI [53] was 81.6 µM.
CC1=C(c2cc(C(=O)Nc3ccc(Cl)c(Cl)c3)nc(N)n2)Sc2ccccc2N1 gave a TGI [1] of over 100 µM, a TGI [2] of over 100 µM and a TGI [3] of over 100 µM. It also gave a TGI [54] of over 100 µM, a TGI [4] of over 100 µM and a TGI [5] of over 100 µM. It also gave a TGI [6] of over 100 µM, a TGI [7] of over 100 µM and a TGI [8] of over 100 µM. For the same compound, the TGI [9] was over 100 µM, the TGI [10] was over 100 µM and the TGI [11] was over 100 µM. For the same compound, the TGI [55] was over 100 µM, the TGI [12] was over 100 µM and the TGI [13] was over 100 µM. For the same compound, the TGI [56] was over 100 µM, the TGI [14] was over 100 µM and the TGI [15] was over 100 µM. For the same compound, the TGI [16] was over 100 µM, the TGI [17] was over 100 µM and the TGI [18] was over 100 µM. It also gave a TGI [19] of over 100 µM, a TGI [20] of over 100 µM and a TGI [21] of over 100 µM. The TGI [22] was over 100 µM, the TGI [23] was over 100 µM and the TGI [24] was over 100 µM. For the same compound, the TGI [25] was over 100 µM, the TGI [26] was over 100 µM and the TGI [27] was over 100 µM. The TGI [28] was over 100 µM, the TGI [29] was over 100 µM and the TGI [30] was over 100 µM. It also gave a TGI [31] of over 100 µM, a TGI [32] of over 100 µM and a TGI [33] of over 100 µM. For the same compound, the TGI [57] was over 100 µM, the TGI [58] was over 100 µM and the TGI [34] was over 100 µM. It also gave a TGI [35] of over 100 µM, a TGI [36] of over 100 µM and a TGI [37] of over 100 µM. For the same compound, the TGI [38] was over 100 µM, the TGI [39] was over 100 µM and the TGI [40] was over 100 µM. The TGI [41] was over 100 µM, the TGI [42] was over 100 µM and the TGI [43] was over 100 µM. For the same compound, the TGI [44] was over 100 µM, the TGI [45] was over 100 µM and the TGI [46] was over 100 µM. The TGI [47] was over 100 µM, the TGI [48] was over 100 µM and the TGI [49] was over 100 µM. It also gave a TGI [50] of over 100 µM, a TGI [51] of over 100 µM and a TGI [52] of over 100 µM. The TGI [53] was over 100 µM.
CC(C)c1cccc(C(C)C)c1NC(=O)C(=O)C(C(=O)c1ccc2ccccc2c1)C1OC(=O)c2ccccc21 (configuration not stated) was tested, and the TGI [1] was over 100 µM, the TGI [2] was over 100 µM and the TGI [4] was over 100 µM. It also gave a TGI [5] of over 100 µM, a TGI [6] of 81.5 µM and a TGI [7] of over 100 µM. For the same compound, the TGI [8] was over 100 µM, the TGI [9] was over 100 µM and the TGI [10] was over 100 µM. For the same compound, the TGI [55] was over 100 µM, the TGI [12] was over 100 µM and the TGI [13] was over 100 µM. The TGI [56] was over 100 µM, the TGI [14] was over 100 µM and the TGI [15] was over 100 µM. It also gave a TGI [16] of over 100 µM, a TGI [18] of over 100 µM and a TGI [19] of over 100 µM. For the same compound, the TGI [20] was over 100 µM, the TGI [21] was over 100 µM and the TGI [22] was over 100 µM. The TGI [23] was over 100 µM, the TGI [24] was over 100 µM and the TGI [25] was over 100 µM. For the same compound, the TGI [26] was over 100 µM, the TGI [28] was over 100 µM and the TGI [29] was over 100 µM. For the same compound, the TGI [30] was over 100 µM, the TGI [32] was over 100 µM and the TGI [33] was over 100 µM. The TGI [57] was over 100 µM, the TGI [58] was over 100 µM and the TGI [34] was over 100 µM. The TGI [35] was over 100 µM, the TGI [36] was over 100 µM and the TGI [37] was over 100 µM. For the same compound, the TGI [38] was over 100 µM, the TGI [41] was over 100 µM and the TGI [42] was over 100 µM. It also gave a TGI [43] of over 100 µM, a TGI [44] of over 100 µM and a TGI [45] of over 100 µM. For the same compound, the TGI [46] was over 100 µM, the TGI [47] was over 100 µM and the TGI [48] was over 100 µM. For the same compound, the TGI [49] was over 100 µM, the TGI [50] was over 100 µM and the TGI [51] was over 100 µM. For the same compound, the TGI [52] was over 100 µM and the TGI [53] was over 100 µM.
Compound O=c1c2ccccc2nc(-c2ccccc2)n1NC(=S)Nc1ccc(Cl)cc1[N+](=O)[O-] has a TGI [1] of over 100 µM, a TGI [2] of over 100 µM and a TGI [54] of over 100 µM. For the same compound, the TGI [4] was over 100 µM, the TGI [5] was over 100 µM and the TGI [6] was 82.4 µM. For the same compound, the TGI [7] was over 100 µM, the TGI [8] was over 100 µM and the TGI [10] was over 100 µM. It also gave a TGI [11] of over 100 µM, a TGI [55] of over 100 µM and a TGI [12] of over 100 µM. The TGI [56] was over 100 µM, the TGI [14] was over 100 µM and the TGI [15] was over 100 µM. For the same compound, the TGI [16] was over 100 µM, the TGI [17] was over 100 µM and the TGI [18] was over 100 µM. It also gave a TGI [19] of over 100 µM, a TGI [20] of 82.4 µM and a TGI [21] of over 100 µM. The TGI [22] was over 100 µM, the TGI [23] was over 100 µM and the TGI [24] was over 100 µM. It also gave a TGI [25] of over 100 µM, a TGI [26] of over 100 µM and a TGI [27] of over 100 µM. For the same compound, the TGI [28] was over 100 µM, the TGI [29] was over 100 µM and the TGI [30] was over 100 µM. It also gave a TGI [57] of over 100 µM, a TGI [58] of over 100 µM and a TGI [34] of over 100 µM. For the same compound, the TGI [35] was over 100 µM, the TGI [36] was over 100 µM and the TGI [37] was over 100 µM. For the same compound, the TGI [38] was over 100 µM, the TGI [39] was over 100 µM and the TGI [40] was over 100 µM. For the same compound, the TGI [41] was over 100 µM, the TGI [43] was over 100 µM and the TGI [44] was over 100 µM. It also gave a TGI [45] of over 100 µM, a TGI [46] of over 100 µM and a TGI [47] of over 100 µM. The TGI [48] was over 100 µM, the TGI [49] was over 100 µM and the TGI [50] was over 100 µM. For the same compound, the TGI [51] was over 100 µM, the TGI [52] was over 100 µM and the TGI [53] was over 100 µM.
